Test results from US20250268894A1, “MACROCYCLE COMPOUNDS FOR THE TREATMENT OF CANCER” (Hoffmann-La Roche Inc., priority 2022, published 2025).

Assays:
[1] = tested on: NCI-H358 cells (KRAS G12C); assay: Cell viability assay (Cell Counting Kit-8), KRAS G12C; type: cell-based; conditions: Homo sapiens, NCI-H358, 72 hrs
Experimental: (§1) The purpose of this cellular assay was to determine the effects of test compounds on the proliferation of human cancer cell lines NCI-H358 (ATCC-CRL5807) cells, AGS (ATCC-CRL-1739) cells, SW620 (ATCC-CCL-227) over a 3-day treatment period by quantifying the amount of NADPH present at endpoint using Cell Counting Kit-8.
(§2) Cells were seeded at 5,000 cells/well (NCI-H358), 2,000 cells/well (AGS)2,000 cells/well (SW620) in 96-well assay plates (Corning-3699) and incubated overnight. On the day of the assay, diluted compounds were then added in a final concentration of 0.5% DMSO. After 72 hrs incubation, a tenth of the volume of cell counting kit 8 (Dnjindo-CK04) was added into each well. Read the signal (OD450 minus OD650) using EnVision after 2 hrs incubation. IC50 was determined by fitting a 4-parameter sigmoidal concentration response model.

AGS cells (KRAS G12D) = assay: Cell viability assay (Cell Counting Kit-8), KRAS G12D; type: cell-based; conditions: Homo sapiens, 72 hrs
Experimental: as §1, §2

SW620 cells (KRAS G12V) = assay: Cell viability assay (Cell Counting Kit-8), KRAS G12V; type: cell-based; conditions: Homo sapiens, SW-620, SW620, 72 hrs
Experimental: as §1, §2

KRAS G12C-BRAF complex = KRAS G12C-BRAF complex (Homo sapiens (Human), UniProt P01116+P62937, G12C); assay: KRAS-BRAF with CYPA (500 nM) interaction assay (TR-FRET), G12C; type: biochemical
Experimental: (§3) Kras-BRAF with CYPA (500 nM) Interaction Assay In this example, TR-FRET was also used to measure the compound or compound-CYPA dependent disruption of the KRAS G12C-BRAF complex. This protocol was also used to measure disruption of KRAS G12D or KRAS G12V binding to BRAF by a compound of the invention, respectively. […] Compound was present in plate wells as a 16-point 3-fold dilution series starting at a final concentration of 10 μM and incubated for 3 hours. […] TR-FRET signal was read on a […] microplate reader (Ex320 nm, Em 665/615 nm). Compounds that facilitate disruption of the KRAS-BRAF complex were identified as those eliciting a decrease in the TR-FRET ratio relative to DMSO control wells.

KRAS G12D-BRAF complex = KRAS G12D-BRAF complex (Homo sapiens (Human), UniProt P01116+P62937, G12D); assay: KRAS-BRAF with CYPA (500 nM) interaction assay (TR-FRET), G12D; type: biochemical
Experimental: as §3

KRAS G12V-BRAF complex = KRAS G12V-BRAF complex (Homo sapiens (Human), UniProt P01116+P62937, G12V); assay: KRAS-BRAF with CYPA (500 nM) interaction assay (TR-FRET), G12V; type: biochemical
Experimental: as §3

[2] = tested on: phosphorylation of ERK, KRAS G12C in NCI-H358 cells; assay: pERK inhibition assay, KRAS G12C in NCI-H358 cells; type: cell-based, human; conditions: Homo sapiens, NCI-H358, 4 hours
Experimental: (§4) This assay is to measure the ability of test compounds in inhibiting the phosphorylation of ERK, the downstream signaling of KRAS G12C in NCI-H358 cells, KRAS G12D in AGS cells, and KRAS G12V in SW620. NCI-H358 (ATCC-CRL5807) cells, AGS (ATCC-CRL-1739) cells, SW620 (ATCC-CCL-227) cells were all grown and maintained using RPMI-1640 medium (Thermo Fisher Scientific) with 10% fetal bovine serum and 1% penicillin/streptomycin. On the day prior to compound addition, cells were plated in tissue culture-treated 96 well plates (Corning-3699) at a density of 30,000 cell/well, 20,000 cell/well, 30,000 cell/well for NCI-H358, AGS and SW620 respectively, and allowed for attachment overnight. Diluted compounds were then added in a final concentration of 0.5% DMSO. After 4 hours of incubation, the medium was removed, 100 μL of 4% formaldehyde was added, and the assay plates were incubated at room temperature for 20 minutes. The plates were then washed once with phosphate buffered saline (PBS), and permeabilized with 100 μL of chilled methanol for 10 minutes. Non-specific antibody binding to the plates was blocked using 50 μL 1X BSA blocking buffer (Thermo-37520, 10-fold dilution by Phosphate-Buffered Saline Tween (PBST) for at least 1 hour at room temperature.
(§5) The amount of phosphor-ERK was determined using an antibody specific for phosphorylated form of ERK. Primary antibody (PERK, CST-4370, Cell Signaling Technology) was diluted 1:300 in blocking buffer, with 50 μL aliquoted to each well, and incubated overnight at 4° C. Cells was washed five times for 5 minutes with PBST. Secondary antibody (HRP-linked anti-rabbit IgG, CST-7074, Cell Signaling Technology) was diluted 1:1000 in blocking buffer, and 50 μL was added to each well and incubated 1-2 hrs at room temperature. Cells was washed […] for 5 minutes with PBST, 100 μL TMB ELISA substrate (abcam-ab171523) were added and gently shake for 20 minutes. 50 μL stop solution (abcam-ab171529) were added, and then read the signal (OD450) by EnVision.
(§6) IC50 was determined by fitting a 4-parameter sigmoidal concentration response model.

[3] = tested on: phosphorylation of ERK, KRAS G12D in AGS cells; assay: pERK inhibition assay, KRAS G12D in AGS cells; type: cell-based, human; conditions: Homo sapiens, 4 hours
Experimental: as §4, §5, §6

[4] = tested on: phosphorylation of ERK, KRAS G12V in SW620 cells; assay: pERK inhibition assay, KRAS G12V in SW620; type: cell-based, human; conditions: Homo sapiens, SW-620, SW620, 4 hours
Experimental: as §4, §5, §6

Chain of KRAS G12V-BRAF complex (P01116-2 other isoform, or with tags, fused parts or gaps G12V): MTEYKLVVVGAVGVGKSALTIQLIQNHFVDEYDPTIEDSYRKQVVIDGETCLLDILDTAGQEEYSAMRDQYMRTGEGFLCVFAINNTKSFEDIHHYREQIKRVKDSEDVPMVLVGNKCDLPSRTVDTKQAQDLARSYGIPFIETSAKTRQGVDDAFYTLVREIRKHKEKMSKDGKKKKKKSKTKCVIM
Chain of KRAS G12V-BRAF complex (P62937 whole entry): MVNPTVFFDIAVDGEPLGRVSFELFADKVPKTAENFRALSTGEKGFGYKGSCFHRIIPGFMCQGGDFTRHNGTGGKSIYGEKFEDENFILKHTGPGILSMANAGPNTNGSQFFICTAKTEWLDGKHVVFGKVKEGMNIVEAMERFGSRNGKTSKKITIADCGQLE
Chain of KRAS G12C-BRAF complex (P01116-2 other isoform, or with tags, fused parts or gaps G12C): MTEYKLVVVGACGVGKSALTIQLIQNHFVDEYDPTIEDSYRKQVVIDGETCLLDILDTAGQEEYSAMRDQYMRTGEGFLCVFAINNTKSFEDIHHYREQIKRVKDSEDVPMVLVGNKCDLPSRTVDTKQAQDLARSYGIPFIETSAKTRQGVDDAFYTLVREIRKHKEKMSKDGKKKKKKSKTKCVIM
Chain of KRAS G12C-BRAF complex (P62937 whole entry): as the sequence (P62937 whole entry) above
Chain of KRAS G12D-BRAF complex (P01116-2 other isoform, or with tags, fused parts or gaps G12D): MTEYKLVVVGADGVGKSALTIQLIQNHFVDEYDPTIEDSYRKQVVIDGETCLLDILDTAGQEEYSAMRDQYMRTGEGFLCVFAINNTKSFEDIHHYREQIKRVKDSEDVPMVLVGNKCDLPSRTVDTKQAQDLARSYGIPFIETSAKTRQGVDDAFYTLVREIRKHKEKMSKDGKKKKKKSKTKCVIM
Chain of KRAS G12D-BRAF complex (P62937 whole entry): as the sequence (P62937 whole entry) above

| SMILES | IC50 [1] | IC50 (AGS cells (KRAS G12D)) | IC50 (SW620 cells (KRAS G12V)) | IC50 (KRAS G12C-BRAF complex) | IC50 (KRAS G12D-BRAF complex) | IC50 (KRAS G12V-BRAF complex) | IC50 [2] | IC50 [3] | IC50 [4] |
| --- | --- | --- | --- | --- | --- | --- | --- | --- | --- |
| CO[C@@H](C)c1ncc(N2CCN(CC(F)(F)F)CC2)cc1-c1c2c3c(F)c(ccc3n1CC(F)(F)F)-c1csc(n1)C[C@H](NC(=O)[C@H](C(C)C)N(C)C(=O)N1CCOCC1)C(=O)N1CCC[C@H](N1)C(=O)OCC(C)(C)C2 (atropisomer, axis not shown; (M)) [Example 17, N-[(1S)-1-[[(7S,13S)-25-fluoro-(20M)-20-[2-[(1S)-1-methoxyethyl]-5-[4-(2,2,2-trifluoroethyl)piperazin-1-yl]-3-pyridyl]-17,17-dimethyl-8,14-dioxo-21-(2,2,2-trifluoroethyl)-15-oxa-4-thia-9,21,27,28-tetrazapentacyclo[17.5.2.1^2,5.1^9,13.0^22,26]octacosa-1 (25),2,5 (28),19,22 (26),23-hexaen-7-yl]carbamoyl]-2-methyl-propyl]-N-methyl-morpholine-4-carboxamide] | 4 nM | 46 nM | 6 nM | 2 nM | 7 nM | 4 nM | 8 nM | 4 nM | 4 nM |
| CO[C@@H](C)c1ncc(N2CCOCC2)cc1-c1c2c3cc(c(F)cc3n1CC(F)(F)F)-c1csc(n1)C[C@H](NC(=O)[C@H](C(C)C)N(C)C(=O)N1CCOCC1)C(=O)N1CCC[C@H](N1)C(=O)OCC(C)(C)C2 (atropisomer, axis not shown; (M)) [Example 11, N-[(1S)-1-[[(7S,13S)-24-fluoro-20-(20M)-[2-[(1S)-1-methoxyethyl]-5-morpholino-3-pyridyl]-17,17-dimethyl-8,14-dioxo-21-(2,2,2-trifluoroethyl)-15-oxa-4-thia-9,21,27,28-tetrazapentacyclo[17.5.2.1^2,5.1^9,13.0^22,26]octacosa-1(25),2,5(28),19,22(26),23-hexaen-7-yl]carbamoyl]-2-methyl-propyl]-N-methyl-morpholine-4-carboxamide] | 2 nM | 6 nM | 1 nM | 24 nM | 112 nM | 59 nM | 3 nM | 1 nM | 1 nM |
